# Test results from patent publication US9802937B2, “Substituted pyrazolo{4,3-D}pyrimidines as kinase inhibitors” (ORIGENIS GMBH, priority 2011, dated 2017).
# pKi: −log10 of the molar value.
# Target: T1, SYK kinase (Homo sapiens, UniProt P43405)
# T1 construct: purchased Invitrogen, Carlsbad
# Experiment: SYK Assay (OMNIA KINASE ASSAY, SOX peptide fluorescence)
# Type: biochemical
# Settings: apparent Ki calculated from the IC50 using the Cheng-Prusoff equation; 1 mM ATP, 30° C.; read-out: SYK Activities: Ki
# Protocol: In the assay OMNIA® KINASE ASSAY by Invitrogen Corporation (Carlsbad) the effect of invention of a compound on the phosphorylation is determined by measurement of fluorescence intensity of a chelation-enhanced fluorophore called SOX. Upon phosphorylation of the peptide by the kinase of interest, Mg2+ is chelated to form a bridge between the SOX moiety and the phosphate group that is transferred to the specific tyrosine on the peptide. The fluorescence intensity is directly proportional to the amount of peptide phosphorylation.
# To the wells of an 384 well small volume plate (Greiner, Frickenhausen) are added (i) the compound under test in 5% DMSO/distilled water (2 μl), (ii) 16 μl of the master mix containing ATP, DTT, Kinase Reaction Buffer, Omina Peptide Substrate Tyr 7 resulting in a final concentration of 1 mM ATP, 0.2 mM DTT and 10 μM Peptide Substrate.
# The Master Mix and the assay plate was incubated to reaction temperature before the measurement (30° C.). The reaction was started with addition of (iii) 2 μl 4 μg/ml SYK kinase (Invitrogen, Carlsbad). During measurement fluorescence intensitiy readings were collected using a TECAN M1000 at a wavelength of λex 360/λem 485 nm every 30 s for 30 minutes. The reaction velocity was plotted versus the inhibitor concentration to determine the […] using XLFit 5.0 (IDBS, Guildford) to fit to a sigmoidal dose response curve, and the apparent Ki values were calculated from the IC50 using the Cheng-Prusoff equation (Cheng, Y.; Prusoff, W. H. Biochem. Pharmacol. 22, 3099-3108, 1973).
row,pKi,SMILES
1,7.00 to 8.00,"COC(=O)c1cccc(-c2nc(Nc3ccc4c(c3)NC(=O)CS4)c3[nH]ncc3n2)c1 [Example #216, methyl 3-(7-((3-oxo-3,4-dihydro-2H-benzo[b][1,4]thiazin-6-yl)amino)-1H-pyrazolo[4,3-d]pyrimidin-5-yl)benzoate]"
2,6.00 to 7.00,"COC(=O)c1cccc(-c2nc(Nc3ccc4cn[nH]c4c3)c3[nH]ncc3n2)c1 [Example #307, methyl 3-(7-((1H-indazol-6-yl)amino)-1H-pyrazolo[4,3-d]pyrimidin-5-yl)benzoate]"
3,7.00 to 8.00,"CS(=O)(=O)c1ccccc1Nc1nc(-c2cccs2)nc2cn[nH]c12 [Example #291, N-(2-(methylsulfonyl)phenyl)-5-(thiophen-2-yl)-1H-pyrazolo[4,3-d]pyrimidin-7-amine]"
4,6.00 to 7.00,"c1cc(-c2nc(Nc3ccc4[nH]ncc4c3)c3[nH]ncc3n2)ccn1 [Example #13, N-(1H-indazol-5-yl)-5-(pyridin-4-yl)-1H-pyrazolo[4,3-d]pyrimidin-7-amine]"
5,6.00 to 7.00,"CN(C)Cc1cccc(Nc2nc(-c3cccs3)nc3cn[nH]c23)c1 [Example #292, N-(3-((dimethylamino)methyl)phenyl)-5-(thiophen-2-yl)-1H-pyrazolo[4,3-d]pyrimidin-7-amine]"
6,7.00 to 8.00,"N#Cc1ccc(Nc2nc(-c3ccccc3)nc3cn[nH]c23)cc1 [Example #12, 4-((5-phenyl-1H-pyrazolo[4,3-d]pyrimidin-7-yl)amino)benzonitrile]"
7,6.00 to 7.00,"CN(C)S(=O)(=O)c1cccc(Nc2nc(-c3cccs3)nc3cn[nH]c23)c1 [Example #264, N,N-dimethyl-3-((5-(thiophen-2-yl)-1H-pyrazolo[4,3-d]pyrimidin-7-yl)amino)benzenesulfonamide]"
8,7.00 to 8.00,"COc1ccc(Nc2nc(-c3cccc(S(C)(=O)=O)c3)nc3cn[nH]c23)cc1OC [Example #249, N-(3,4-dimethoxyphenyl)-5-(3-(methylsulfonyl)phenyl)-1H-pyrazolo[4,3-d]pyrimidin-7-amine]"
9,> 8.00,"Cc1nc2cc(Nc3nc(-c4cccs4)nc4cn[nH]c34)ccc2[nH]1 [Example #245, N-(2-methyl-1H-benzo[d]imidazol-5-yl)-5-(thiophen-2-yl)-1H-pyrazolo[4,3-d]pyrimidin-7-amine]"

# The next lines start with the compound.
row,SMILES,pKi
1,"O=C1CCc2ccc(Nc3nc(-c4cccc(S(F)(F)(F)(F)F)c4)nc4cn[nH]c34)cc2N1 [Example #222, 7-((5-(3-(pentafluorosulfanyl)phenyl)-1H-pyrazolo[4,3-d]pyrimidin-7-yl)amino)-3,4-dihydroquinolin-2(1H)-one]",6.00 to 7.00
2,"CN1CCC(CNc2nc(C(=O)c3ccccc3)nc3cn[nH]c23)CC1 [Example #151, (7-(((1-methylpiperidin-4-yl)methyl)amino)-1H-pyrazolo[4,3-d]pyrimidin-5-yl)(phenyl)methanone]",> 8.00
3,"Fc1ccc(-c2nc(Nc3ccc(N4CCOCC4)cc3)c3[nH]ncc3n2)cc1F [Example #273, 5-(3,4-difluorophenyl)-N-(4-morpholinophenyl)-1H-pyrazolo[4,3-d]pyrimidin-7-amine]",7.00 to 8.00
4,"CN1CCC(c2nc(Nc3ccc(N4CCN(C)CC4)cc3)c3[nH]ncc3n2)CC1 [Example #53, N-(4-(4-methylpiperazin-1-yl)phenyl)-5-(1-methylpiperidin-4-yl)-1H-pyrazolo[4,3-d]pyrimidin-7-amine]",7.00 to 8.00
5,"COc1ccc(Nc2nc(-c3ccc(F)cc3F)nc3cn[nH]c23)cc1OC [Example #285, 5-(2,4-difluorophenyl)-N-(3,4-dimethoxyphenyl)-1H-pyrazolo[4,3-d]pyrimidin-7-amine]",> 8.00
6,"Cc1nc2cc(Nc3nc(-c4cnc5cc[nH]c5c4)nc4cn[nH]c34)ccc2[nH]1 [Example #259, N-(2-methyl-1H-benzo[d]imidazol-5-yl)-5-(1H-pyrrolo[3,2-b]pyridin-6-yl)-1H-pyrazolo[4,3-d]pyrimidin-7-amine]",6.00 to 7.00
